Measured values as given in ChEMBL document CHEMBL5500358, “Identification of CH2-linked quinolone-aminopyrimidine hybrids as potent anti-MRSA agents: Low resistance potential and lack of cross-resistance with fluoroquinolone antibiotics” (Eur J Med Chem, 2024).
Values after ≈ are worked out from the molar mass of the structure shown. Active and inactive are the calls of the source. The rule behind the calls is not given here.

How the values were obtained:
[1] = test system: Staphylococcus aureus; assay: Antibacterial activity against fluoroquinolone/methicillin resistant Staphylococcus aureus Mu50 incubated for 16 to 18 hrs by absorbance based analysis; format: functional; conditions: time 16-18 hrs
[2] = test system: Staphylococcus aureus; assay: Antibacterial activity against fluoroquinolone-sensitive methicillin resistant Staphylococcus aureus USA500 incubated for 16 to 18 hrs by absorbance based analysis; format: functional; conditions: time 16-18 hrs
[3] = test system: Staphylococcus aureus; assay: Antibacterial activity against fluoroquinolone-sensitive methicillin resistant Staphylococcus aureus ATCC 33591 incubated for 16 to 18 hrs by absorbance based analysis; format: functional; conditions: time 16-18 hrs
[4] = test system: Escherichia coli; assay: Antibacterial activity against Escherichia coli ATCC 25922 incubated for 16 to 18 hrs by absorbance based analysis; format: functional; conditions: time 16-18 hrs
[5] = Metabolic stability in rat liver microsomes assessed as compound remaining at 1 uM measured after 60 mins by LC-MS/MS analysis; format: ADME, Microsome; conditions: read-out: Stability
[6] = Metabolic stability in human liver microsomes assessed as microsomal intrinsic clearance at 1 uM by LC-MS/MS analysis; format: ADME, Microsome; conditions: read-out: CLH
[7] = Metabolic stability in rat liver microsomes assessed as microsomal intrinsic clearance at 1 uM by LC-MS/MS analysis; format: ADME, Microsome; conditions: read-out: CLH
[8] = Metabolic stability in human liver microsomes assessed as compound remaining at 1 uM measured after 60 mins by LC-MS/MS analysis; format: ADME, Microsome; conditions: read-out: Stability
[9] = Metabolic stability in human liver microsomes assessed as drug elimination rate constant at 1 uM by LC-MS/MS analysis; format: ADME, Microsome
[10] = Metabolic stability in human liver microsomes assessed as elimination half life at 1 uM by LC-MS/MS analysis; format: ADME, Microsome; conditions: read-out: beta t1/2
[11] = Metabolic stability in rat liver microsomes assessed as elimination half life at 1 uM by LC-MS/MS analysis; format: ADME, Microsome; conditions: read-out: beta t1/2
[12] = Metabolic stability in rat liver microsomes assessed as drug elimination rate constant at 1 uM by LC-MS/MS analysis; format: ADME, Microsome
[13] = test system: Staphylococcus aureus; assay: Antibacterial activity against methicillin resistant Staphylococcus aureus ATCC 33591 measured after 15 passages; format: functional

C[C@H]1COc2c(N3CCN(C)CC3)c(F)cc3c(=O)c(C(=O)O)cn1c23 [LEVOFLOXACIN ANHYDROUS]
MIC [1]: 25 µg/mL (≈ 69.2 µM)
MIC [2]: 0.2 µg/mL (≈ 0.553 µM)

O=C(O)c1cn(C2CC2)c2cc(Nc3nccc(Cc4ccc(Cl)cc4Cl)n3)c(F)cc2c1=O
MIC [1]: 3.12 µg/mL (≈ 6.25 µM)
MIC [3]: 0.5 µg/mL (≈ 1 µM)
MIC [4]: > 64 µg/mL
MIC [2]: 3.12 µg/mL (≈ 6.25 µM)

COc1cccc(Cc2ccnc(Nc3cc4c(cc3F)c(=O)c(C(=O)O)cn4C3CC3)n2)c1
MIC [3]: 8 µg/mL (≈ 17.4 µM)
MIC [4]: > 64 µg/mL

Cc1ccc(Cc2ccnc(Nc3cc4c(cc3F)c(=O)c(C(=O)O)cn4C3CC3)n2)c(C)c1
MIC [1]: 6.25 µg/mL (≈ 13.6 µM)
MIC [3]: 1 µg/mL (≈ 2.18 µM)
MIC [4]: > 64 µg/mL
MIC [2]: 6.25 µg/mL (≈ 13.6 µM)

COc1ccc(Cc2ccnc(Nc3cc4c(cc3F)c(=O)c(C(=O)O)cn4C3CC3)n2)cc1
MIC [3]: 4 µg/mL (≈ 8.69 µM)
MIC [4]: > 64 µg/mL

Cc1ncc2n1-c1ccc(Cl)cc1C(c1ccccc1F)=NC2 [MIDAZOLAM]
remaining at 1 h, 1 µM [5]: 0.48%
microsomal CLint at 1 µM [6]: 1250 µL/min/mg
microsomal CLint at 1 µM [7]: 1350 µL/min/mg
remaining at 1 h, 1 µM [8]: 0.691%
k el at 1 µM [9]: 0.00417 s⁻¹
half-life at 1 µM [10]: 2.77 min
half-life at 1 µM [11]: 2.58 min
k el at 1 µM [12]: 0.00448 s⁻¹

O=C(O)c1cn(C2CC2)c2cc(Nc3nccc(Cc4cccc(Cl)c4)n3)ccc2c1=O
MIC [1]: 1.56 µg/mL (≈ 3.49 µM)
MIC [3]: 0.5 µg/mL (≈ 1.12 µM)
MIC [4]: > 64 µg/mL
MIC [2]: 1.56 µg/mL (≈ 3.49 µM)

O=C(O)c1cn(C2CC2)c2cc(Nc3nccc(Cc4ccc(F)c(F)c4)n3)ccc2c1=O
MIC [1]: 1.56 µg/mL (≈ 3.48 µM)
MIC [3]: 0.5 µg/mL (≈ 1.12 µM)
MIC [4]: > 64 µg/mL
MIC [2]: 0.78 µg/mL (≈ 1.74 µM)

O=C(O)c1cn(C2CC2)c2cc(Nc3nccc(Cc4ccc(F)cc4F)n3)c(F)cc2c1=O
MIC [1]: 3.12 µg/mL (≈ 6.69 µM)
MIC [3]: 1 µg/mL (≈ 2.14 µM)
MIC [4]: > 64 µg/mL
MIC [2]: 3.12 µg/mL (≈ 6.69 µM)

Cc1ccc(Cc2ccnc(Nc3cc4c(cc3F)c(=O)c(C(=O)O)cn4C3CC3)n2)cc1
MIC [3]: 2 µg/mL (≈ 4.5 µM)
MIC [4]: > 64 µg/mL

O=C(O)c1cn(C2CC2)c2cc(Nc3nccc(Cc4ccccc4Cl)n3)ccc2c1=O
MIC [1]: 3.12 µg/mL (≈ 6.98 µM)
MIC [3]: 0.5 µg/mL (≈ 1.12 µM)
MIC [4]: > 64 µg/mL
MIC [2]: 3.12 µg/mL (≈ 6.98 µM)

O=C(O)c1cn(C2CC2)c2cc(Nc3nccc(Cc4ccc(Cl)cc4Cl)n3)ccc2c1=O
MIC [1]: 0.78 µg/mL (≈ 1.62 µM)
MIC [3]: 0.25 µg/mL (≈ 0.519 µM)
MIC [4]: > 64 µg/mL
MIC [2]: 0.39 µg/mL (≈ 0.81 µM)

Cc1ccc(Cc2ccnc(Nc3cc4c(cc3F)c(=O)c(C(=O)O)cn4C3CC3)n2)cc1C
MIC [1]: 25 µg/mL (≈ 54.5 µM)
MIC [3]: 2 µg/mL (≈ 4.36 µM)
MIC [4]: > 64 µg/mL
MIC [2]: 25 µg/mL (≈ 54.5 µM)

O=C(O)c1cn(C2CC2)c2cc(N3CCNCC3)c(F)cc2c1=O [CIPROFLOXACIN]
MIC [3]: 0.25 µg/mL (≈ 0.754 µM)
MIC [2]: 0.39 µg/mL (≈ 1.18 µM)

N#Cc1ccccc1Cc1ccnc(Nc2cc3c(cc2F)c(=O)c(C(=O)O)cn3C2CC2)n1
MIC [3]: 8 µg/mL (≈ 17.6 µM)
MIC [4]: > 64 µg/mL

CN[C@H](CC(C)C)C(=O)N[C@H]1C(=O)N[C@@H](CC(N)=O)C(=O)N[C@H]2C(=O)N[C@H]3C(=O)N[C@H](C(=O)N[C@H](C(=O)O)c4cc(O)cc(O)c4-c4cc3ccc4O)[C@H](O)c3ccc(c(Cl)c3)Oc3cc2cc(c3O[C@@H]2O[C@H](CO)[C@@H](O)[C@H](O)[C@H]2O[C@H]2C[C@](C)(N)[C@H](O)[C@H](C)O2)Oc2ccc(cc2Cl)[C@H]1O [VANCOMYCIN]
Activity [13]: inactive
MIC [1]: 3.12 µg/mL (≈ 2.15 µM)
MIC [4]: > 64 µg/mL
MIC [2]: 0.78 µg/mL (≈ 0.538 µM)

O=C(O)c1cn(C2CC2)c2cc(Nc3nccc(Cc4ccccc4)n3)c(F)cc2c1=O
MIC [3]: 4 µg/mL (≈ 9.29 µM)
MIC [4]: > 64 µg/mL

O=C(O)c1cn(C2CC2)c2cc(Nc3nccc(Cc4ccc(F)c(F)c4)n3)c(F)cc2c1=O
MIC [1]: 6.25 µg/mL (≈ 13.4 µM)
MIC [3]: 1 µg/mL (≈ 2.14 µM)
MIC [4]: > 64 µg/mL
MIC [2]: 6.25 µg/mL (≈ 13.4 µM)

O=C(O)c1cn(C2CC2)c2cc(Nc3nccc(Cc4ccc(Cl)cc4)n3)ccc2c1=O
MIC [1]: 1.56 µg/mL (≈ 3.49 µM)
MIC [3]: 0.5 µg/mL (≈ 1.12 µM)
MIC [4]: > 64 µg/mL
MIC [2]: 1.56 µg/mL (≈ 3.49 µM)

O=C(O)c1cn(C2CC2)c2cc(Nc3nccc(Cc4ccc(Cl)c(Cl)c4)n3)ccc2c1=O
MIC [1]: 1.56 µg/mL (≈ 3.24 µM)
MIC [3]: 0.5 µg/mL (≈ 1.04 µM)
MIC [4]: > 64 µg/mL
MIC [2]: 1.56 µg/mL (≈ 3.24 µM)

O=C(O)c1cn(C2CC2)c2cc(Nc3nccc(Cc4ccc(Cl)c(Cl)c4)n3)c(F)cc2c1=O
MIC [1]: 6.25 µg/mL (≈ 12.5 µM)
MIC [3]: 0.5 µg/mL (≈ 1 µM)
MIC [4]: > 64 µg/mL
MIC [2]: 6.25 µg/mL (≈ 12.5 µM)

Cc1ccccc1Cc1ccnc(Nc2cc3c(cc2F)c(=O)c(C(=O)O)cn3C2CC2)n1
MIC [3]: 2 µg/mL (≈ 4.5 µM)
MIC [4]: > 64 µg/mL

COc1ccccc1Cc1ccnc(Nc2cc3c(cc2F)c(=O)c(C(=O)O)cn3C2CC2)n1
MIC [3]: 4 µg/mL (≈ 8.69 µM)
MIC [4]: > 64 µg/mL

O=C(O)c1cn(C2CC2)c2cc(Nc3nccc(Cc4cccc(F)c4)n3)c(F)cc2c1=O
MIC [3]: 2 µg/mL (≈ 4.46 µM)
MIC [4]: > 64 µg/mL

O=C(O)c1cn(C2CC2)c2cc(Nc3nccc(Cc4ccccc4F)n3)c(F)cc2c1=O
MIC [3]: 2 µg/mL (≈ 4.46 µM)
MIC [4]: > 64 µg/mL

Cc1cccc(Cc2ccnc(Nc3cc4c(cc3F)c(=O)c(C(=O)O)cn4C3CC3)n2)c1
MIC [3]: 4 µg/mL (≈ 9 µM)
MIC [4]: > 64 µg/mL

Cc1ccc(Oc2ccnc(Nc3ccc4c(=O)c(C(=O)O)cn(C5CC5)c4c3)n2)cc1C
MIC [1]: 0.39 µg/mL (≈ 0.881 µM)
MIC [3]: 0.5 µg/mL (≈ 1.13 µM)
MIC [4]: > 64 µg/mL
MIC [2]: 0.39 µg/mL (≈ 0.881 µM)
half-life at 1 µM [10]: 25.9 min
half-life at 1 µM [11]: 8.7 min

O=C(O)c1cn(C2CC2)c2cc(Nc3nccc(Cc4ccc(F)cc4)n3)c(F)cc2c1=O
MIC [3]: 2 µg/mL (≈ 4.46 µM)
MIC [4]: > 64 µg/mL

O=C(O)c1cn(C2CC2)c2cc(Nc3nccc(Cc4cccc(Cl)c4)n3)c(F)cc2c1=O
MIC [1]: 6.25 µg/mL (≈ 13.4 µM)
MIC [3]: 2 µg/mL (≈ 4.3 µM)
MIC [4]: > 64 µg/mL
MIC [2]: 6.25 µg/mL (≈ 13.4 µM)

O=C(O)c1cn(C2CC2)c2cc(Nc3nccc(Cc4ccccc4Cl)n3)c(F)cc2c1=O
MIC [1]: 6.25 µg/mL (≈ 13.4 µM)
MIC [3]: 2 µg/mL (≈ 4.3 µM)
MIC [4]: > 64 µg/mL
MIC [2]: 6.25 µg/mL (≈ 13.4 µM)

O=C(O)c1cn(C2CC2)c2cc(Nc3nccc(Cc4ccc(Cl)cc4)n3)c(F)cc2c1=O
MIC [1]: 3.12 µg/mL (≈ 6.71 µM)
MIC [3]: 1 µg/mL (≈ 2.15 µM)
MIC [4]: > 64 µg/mL
MIC [2]: 1.56 µg/mL (≈ 3.36 µM)

Cc1ccc(Cc2ccnc(Nc3ccc4c(=O)c(C(=O)O)cn(C5CC5)c4c3)n2)c(C)c1
MIC [1]: 1.56 µg/mL (≈ 3.54 µM)
MIC [3]: 1 µg/mL (≈ 2.27 µM)
MIC [4]: > 64 µg/mL
MIC [2]: 1.56 µg/mL (≈ 3.54 µM)
